In ChEMBL document CHEMBL2203009, “Synthesis of isoindole and benzoisoindole derivatives of teicoplanin pseudoaglycon with remarkable antibacterial and antiviral activities” (Bioorg Med Chem Lett, 2012):
Converted amounts (≈) assume the structure as drawn.

Assays:
[1] = Toxicity in HEL cells assessed as induction of cell morphology changes; type: cell-based; conditions: human
Human alphaherpesvirus 1 [2] = test: Antiviral activity against thymidine kinase deficient and acyclovir-resistant HSV1 KOS infected in HEL cells assessed as inhibition of virus-induced cytopathic effect; type: functional, organism-based; conditions: Human alphaherpesvirus 1, KOS
[3] = system: Vesicular stomatitis virus; test: Antiviral activity against Vesicular stomatitis virus infected in HEL cells assessed as inhibition of virus-induced cytopathic effect; type: functional, organism-based
Vaccinia virus = test: Antiviral activity against Vaccinia virus infected in HEL cells assessed as inhibition of virus-induced cytopathic effect; type: functional, organism-based; conditions: Orthopoxvirus vaccinia
Human alphaherpesvirus 2 = test: Antiviral activity against HSV2 G infected in HEL cells assessed as inhibition of virus-induced cytopathic effect; type: functional, organism-based; conditions: Human alphaherpesvirus 2, strain G
Human alphaherpesvirus 1 [4] = test: Antiviral activity against HSV1 KOS infected in HEL cells assessed as inhibition of virus-induced cytopathic effect; type: functional, organism-based; conditions: Human alphaherpesvirus 1, KOS
[5] = Toxicity in MDCK cells assessed as induction of cell morphology changes; type: cell-based, Canis lupus familiaris; conditions: dog
Influenza B virus = test: Antiviral activity against Influenza B virus (B/Hong Kong/05/1972) […] infected in MDCK cells assessed as inhibition of virus-induced cytopathic effect; type: functional, cell-based; conditions: B/Hong Kong/05/1972, MDCK
H3N2 subtype = test: Antiviral activity against Influenza A virus (A/Hong Kong/7/1987(H3N2)) […] infected in MDCK cells assessed as inhibition of virus-induced cytopathic effect; type: functional, organism-based
Influenza A virus = test: Antiviral activity against Influenza A virus (A/Puerto Rico/8/1934(H1N1)) H1N1 infected in MDCK cells assessed as inhibition of virus-induced cytopathic effect; type: functional, organism-based
Enterococcus faecalis [6] = test: Antimicrobial activity against Enterococcus faecalis 15376 over-expressing vanA; type: functional
Enterococcus faecalis [7] = test: Antimicrobial activity against Enterococcus faecalis ATCC 51299 over-expressing vanB; type: functional
[8] = system: Staphylococcus epidermidis; test: Antimicrobial activity against Staphylococcus epidermidis over-expressing MecA; type: functional
Enterococcus faecalis [9] = test: Antimicrobial activity against Enterococcus faecalis ATCC 29212; type: functional
[10] = system: Staphylococcus epidermidis; test: Antimicrobial activity against Staphylococcus epidermidis ATCC 35984 biofilms; type: functional
Staphylococcus aureus [11] = test: Antimicrobial activity against methicillin-resistant Staphylococcus aureus ATCC 33591; type: functional
Bacillus subtilis = test: Antimicrobial activity against Bacillus subtilis ATCC 6633; type: functional
Staphylococcus aureus [12] = test: Antimicrobial activity against methicillin-sensitive Staphylococcus aureus ATCC 29213; type: functional

Compound | MCC [1] [µM] | EC50 (Human alphaherpesvirus 1 [2]) [µM] | EC50 [3] [µM] | EC50 (Vaccinia virus) [µM] | EC50 (Human alphaherpesvirus 2) [µM] | EC50 (Human alphaherpesvirus 1 [4]) [µM] | MCC [5] [µM] | EC50 (Influenza B virus) [µM] | EC50 (H3N2 subtype) [µM] | EC50 (Influenza A virus) [µM] | MBC (Enterococcus faecalis [6]) [µg/mL] | MIC (Enterococcus faecalis [6]) [µg/mL] | MBC (Enterococcus faecalis [7]) [µg/mL] | MIC (Enterococcus faecalis [7]) [µg/mL] | MBC [8] [µg/mL] | MIC [8] [µg/mL] | MBC (Enterococcus faecalis [9]) [µg/mL] | MIC (Enterococcus faecalis [9]) [µg/mL] | MBC [10] [µg/mL] | MIC [10] [µg/mL] | other results
CC(=O)N[C@H]1[C@H](O[C@@H]2c3ccc(c(Cl)c3)Oc3cc4cc(c3O)Oc3ccc(cc3Cl)C[C@H]3NC(=O)[C@H](n5cc6ccccc6c5Sc5ccccc5)c5ccc(O)c(c5)Oc5cc(O)cc(c5)[C@H](NC3=O)C(=O)N[C@H]4C(=O)N[C@H]3C(=O)N[C@@H]2C(=O)N[C@H](C(=O)O)c2cc(O)cc(O)c2-c2cc3ccc2O)O[C@H](CO)[C@@H](O)[C@@H]1O | ≥ 20 | ≥ 20 | > 20 | > 20 | 9 | 9 | 4 | > 100 | > 100 | > 100 | 32 (≈ 19.9 µM) | 2 (≈ 1.24 µM) | 256 (≈ 159 µM) | 2 (≈ 1.24 µM) | 32 (≈ 19.9 µM) | 2 (≈ 1.24 µM) | 256 (≈ 159 µM) | 0.0075 (≈ 0.00466 µM) | 0.5 (≈ 0.31 µM) | 0.0165 (≈ 0.0102 µM) | MBC (Staphylococcus aureus [11]): 2 µg/mL (≈ 1.24 µM); MIC (Staphylococcus aureus [11]): 0.0625 µg/mL (≈ 0.0388 µM); MBC (Bacillus subtilis): 1 µg/mL (≈ 0.621 µM); MIC (Bacillus subtilis): 1 µg/mL (≈ 0.621 µM); MBC (Staphylococcus aureus [12]): 128 µg/mL (≈ 79.5 µM); MIC (Staphylococcus aureus [12]): 0.125 µg/mL (≈ 0.0776 µM)
CC(=O)N[C@H]1[C@H](O[C@@H]2c3ccc(c(Cl)c3)Oc3cc4cc(c3O)Oc3ccc(cc3Cl)C[C@H]3NC(=O)[C@H](n5cc6ccccc6c5Sc5ncccn5)c5ccc(O)c(c5)Oc5cc(O)cc(c5)[C@H](NC3=O)C(=O)N[C@H]4C(=O)N[C@H]3C(=O)N[C@@H]2C(=O)N[C@H](C(=O)O)c2cc(O)cc(O)c2-c2cc3ccc2O)O[C@H](CO)[C@@H](O)[C@@H]1O | > 100 | 50 | > 100 | ≥ 58 | 45 | 47 | 20 | > 100 | > 100 | > 100 | 256 (≈ 159 µM) | 0.0625 (≈ 0.0388 µM) | 256 (≈ 159 µM) | 1 (≈ 0.62 µM) | 64 (≈ 39.7 µM) | 4 (≈ 2.48 µM) | 256 (≈ 159 µM) | 0.0313 (≈ 0.0194 µM) | 1 (≈ 0.62 µM) | 0.0165 (≈ 0.0102 µM) | MBC (Staphylococcus aureus [11]): 8 µg/mL (≈ 4.96 µM); MIC (Staphylococcus aureus [11]): 0.0313 µg/mL (≈ 0.0194 µM); MBC (Bacillus subtilis): 0.5 µg/mL (≈ 0.31 µM); MIC (Bacillus subtilis): 0.0625 µg/mL (≈ 0.0388 µM); MBC (Staphylococcus aureus [12]): 0.5 µg/mL (≈ 0.31 µM); MIC (Staphylococcus aureus [12]): 0.0313 µg/mL (≈ 0.0194 µM)
CC(=O)N[C@H]1[C@H](O[C@@H]2c3ccc(c(Cl)c3)Oc3cc4cc(c3O)Oc3ccc(cc3Cl)C[C@H]3NC(=O)[C@H](n5cc6ccccc6c5Sc5nc6ccccc6s5)c5ccc(O)c(c5)Oc5cc(O)cc(c5)[C@H](NC3=O)C(=O)N[C@H]4C(=O)N[C@H]3C(=O)N[C@@H]2C(=O)N[C@H](C(=O)O)c2cc(O)cc(O)c2-c2cc3ccc2O)O[C@H](CO)[C@@H](O)[C@@H]1O | ≥ 100 | 45 | > 100 | 47 | 45 | 45 | 4 | > 100 | > 100 | > 100 | 256 (≈ 154 µM) | 0.0313 (≈ 0.0188 µM) | 256 (≈ 154 µM) | 0.0625 (≈ 0.0375 µM) | 256 (≈ 154 µM) | 4 (≈ 2.4 µM) | 256 (≈ 154 µM) | 2 (≈ 1.2 µM) | 0.5 (≈ 0.3 µM) | 0.0075 (≈ 0.0045 µM) | MBC (Staphylococcus aureus [11]): 0.5 µg/mL (≈ 0.3 µM); MIC (Staphylococcus aureus [11]): 0.0075 µg/mL (≈ 0.0045 µM); MBC (Bacillus subtilis): 2 µg/mL (≈ 1.2 µM); MIC (Bacillus subtilis): 1 µg/mL (≈ 0.6 µM); MBC (Staphylococcus aureus [12]): 0.5 µg/mL (≈ 0.3 µM); MIC (Staphylococcus aureus [12]): 0.0075 µg/mL (≈ 0.0045 µM)
CC(=O)N[C@H]1[C@H](O[C@@H]2c3ccc(c(Cl)c3)Oc3cc4cc(c3O)Oc3ccc(cc3Cl)C[C@H]3NC(=O)[C@H](n5cc6cc7ccccc7cc6c5Sc5ccccc5)c5ccc(O)c(c5)Oc5cc(O)cc(c5)[C@H](NC3=O)C(=O)N[C@H]4C(=O)N[C@H]3C(=O)N[C@@H]2C(=O)N[C@H](C(=O)O)c2cc(O)cc(O)c2-c2cc3ccc2O)O[C@H](CO)[C@@H](O)[C@@H]1O | 100 | > 20 | > 20 | > 20 | > 20 | > 20 | < 0.8 | > 100 | > 100 | > 100 | 32 (≈ 19.3 µM) | 0.125 (≈ 0.0753 µM) | 256 (≈ 154 µM) | 2 (≈ 1.2 µM) | 256 (≈ 154 µM) | 0.0313 (≈ 0.0189 µM) | 256 (≈ 154 µM) | 1 (≈ 0.602 µM) | 0.5 (≈ 0.301 µM) | 0.0313 (≈ 0.0189 µM) | MBC (Staphylococcus aureus [11]): 0.5 µg/mL (≈ 0.301 µM); MIC (Staphylococcus aureus [11]): 0.25 µg/mL (≈ 0.151 µM); MBC (Bacillus subtilis): 4 µg/mL (≈ 2.41 µM); MIC (Bacillus subtilis): 2 µg/mL (≈ 1.2 µM); MBC (Staphylococcus aureus [12]): 1 µg/mL (≈ 0.602 µM); MIC (Staphylococcus aureus [12]): 0.0313 µg/mL (≈ 0.0189 µM)
CC(=O)N[C@H]1[C@H](O[C@@H]2c3ccc(c(Cl)c3)Oc3cc4cc(c3O)Oc3ccc(cc3Cl)C[C@H]3NC(=O)[C@H](n5cc6cc7ccccc7cc6c5Sc5ncccn5)c5ccc(O)c(c5)Oc5cc(O)cc(c5)[C@H](NC3=O)C(=O)N[C@H]4C(=O)N[C@H]3C(=O)N[C@@H]2C(=O)N[C@H](C(=O)O)c2cc(O)cc(O)c2-c2cc3ccc2O)O[C@H](CO)[C@@H](O)[C@@H]1O | ≥ 100 | 45 | > 100 | 10 | 27 | 40 | 13 | > 50 | 0.54 | 0.54 | 256 (≈ 154 µM) | 0.5 (≈ 0.301 µM) | 256 (≈ 154 µM) | 1 (≈ 0.602 µM) | 256 (≈ 154 µM) | 0.015 (≈ 0.00902 µM) | 256 (≈ 154 µM) | 0.015 (≈ 0.00902 µM) | 0.5 (≈ 0.301 µM) | 0.015 (≈ 0.00902 µM) | MBC (Staphylococcus aureus [11]): 0.5 µg/mL (≈ 0.301 µM); MIC (Staphylococcus aureus [11]): 0.015 µg/mL (≈ 0.00902 µM); MBC (Bacillus subtilis): 2 µg/mL (≈ 1.2 µM); MIC (Bacillus subtilis): 0.0313 µg/mL (≈ 0.0188 µM); MBC (Staphylococcus aureus [12]): 0.5 µg/mL (≈ 0.301 µM); MIC (Staphylococcus aureus [12]): 0.015 µg/mL (≈ 0.00902 µM)
